Laboratory results reported in patent US11020416B2, “Cancer chemotherapy employing halogenated analogs of thymidine” (priority 2015, dated 2021).
Like-named read-outs stand apart in the source and are kept apart here.

Tests used:
PARP1 [1] = molecular target: T1, PARP1 (Homo sapiens, UniProt P09874); experiment: Michaelis-Menten kinetic analysis of PARP1 enzymatic activity in solution (FIG. 1); assay type: biochemical
Protocol: Cloned human PARP-1 (8 nanomolar) was incubated with 100 nanomolar dA/dT, 50 micrograms/milliliter histone Hi and varying concentrations (50, 150, 450 micromolar) of ^32P-NAD^+ in the absence and presence of inhibitor (50 micromolar) at physiological pH (7.3) as described (E. Kirsten, E. Kun, J. Mendeleyev, C. P. Ordahl, Methods in Molecular Biology 287 137 (2004) and Kun, 2004 op cit). Reactions were started by the addition of PARP-1 and incubated for 10 minutes at room temperature after which acid precipitable ^32P was determined.
Target sequence in this assay (P09874 whole entry): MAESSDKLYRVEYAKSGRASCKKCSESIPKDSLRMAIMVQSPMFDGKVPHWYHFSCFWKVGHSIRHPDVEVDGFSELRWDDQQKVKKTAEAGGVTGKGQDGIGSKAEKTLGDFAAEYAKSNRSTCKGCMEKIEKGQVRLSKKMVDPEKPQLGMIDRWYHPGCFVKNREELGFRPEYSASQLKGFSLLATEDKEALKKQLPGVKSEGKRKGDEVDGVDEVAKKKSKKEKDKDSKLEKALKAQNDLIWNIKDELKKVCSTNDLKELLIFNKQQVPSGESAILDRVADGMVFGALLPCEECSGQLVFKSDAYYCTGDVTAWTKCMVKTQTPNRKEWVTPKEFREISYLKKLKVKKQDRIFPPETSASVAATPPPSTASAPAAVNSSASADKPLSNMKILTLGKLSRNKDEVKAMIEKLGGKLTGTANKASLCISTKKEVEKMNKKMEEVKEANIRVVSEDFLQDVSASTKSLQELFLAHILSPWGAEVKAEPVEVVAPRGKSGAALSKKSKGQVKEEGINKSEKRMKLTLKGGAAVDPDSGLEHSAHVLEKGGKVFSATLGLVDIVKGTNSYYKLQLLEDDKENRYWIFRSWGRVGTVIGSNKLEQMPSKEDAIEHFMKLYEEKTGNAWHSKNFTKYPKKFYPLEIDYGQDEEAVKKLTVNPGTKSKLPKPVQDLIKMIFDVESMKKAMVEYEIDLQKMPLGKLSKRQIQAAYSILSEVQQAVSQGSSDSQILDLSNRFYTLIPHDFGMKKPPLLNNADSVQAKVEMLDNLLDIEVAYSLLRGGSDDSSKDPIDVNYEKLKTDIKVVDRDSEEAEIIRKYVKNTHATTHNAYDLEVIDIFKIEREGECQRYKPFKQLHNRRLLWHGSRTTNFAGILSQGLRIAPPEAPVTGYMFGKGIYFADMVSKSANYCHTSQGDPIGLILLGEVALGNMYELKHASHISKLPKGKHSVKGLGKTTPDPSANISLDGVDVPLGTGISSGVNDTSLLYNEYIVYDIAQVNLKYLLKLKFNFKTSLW

PARP1 [2] = settings: solution; Rankin, 1989; cited from earlier work
PARP1 [3] = molecular target: T1, PARP1; design: isolated HeLa cell nuclei; endogenous in cells; host or cells: isolated HeLa cell nuclei; settings: 1 mM; Preiss, 1971; cited from earlier work
Target sequence in this assay (P09874 whole entry): as above

PARP1 [4] = molecular target: T1, PARP1; settings: solution; Pivazyan, 1992; cited from earlier work
Target sequence in this assay (P09874 whole entry, species assumed): as the sequence (P09874 whole entry) above

[5] = test system: Calu-6, a human lung carcinoma cell line; experiment: 14-day culture of neoplastic cells with HAT, morphology and cell number (FIG. 2); assay type: cell-based; settings: Calu-6, 10 micromolar, 14 days in culture (more than 300 without drug)
Source text: (§1) FIGS. 2A-D illustrate HAT-Pi effects on two neoplastic cell lines; a) Calu-6, a human lung carcinoma cell line; and, b) DU-145, a human prostate metastatic carcinoma cell line.
(§2) Additionally, the overall appearance of the cultures and the morphology of the surviving cells is altered in specific ways. First, the remaining (surviving) cells are tightly adherent to the surface of the culture dish giving them a “flattened” appearance. Second, neoplastic cell expansion is attributable to cytoplasmic growth, which leaves the smaller internal cell nuclei distinctive in outline. Third, many cell outlines are “ruffled” in some regions due to the presence of lamellipodia, plasmalemma projections that are the leading edges of cell expansion (open arrows in FIGS. 2B and 2D). Fourth, specialized cell-cell contact and communication regions are evident where the lamellipodia of two or more cells meet (closed arrows in FIGS. 2B and 2D). […] These characteristic features of HAT-treated neoplastic cells indicate that substrate-attachment-dependent survival and contact inhibition have both been restored in surviving neoplastic cells. […]

[6] = test system: DU-145, a human prostate metastatic carcinoma cell line; experiment: as above; assay type: cell-based; settings: DU-145, 10 micromolar, 14 days in culture (more than 300 without drug)
Source text: as §1, §2

Unresectable Sarcoma = settings: trial e, 1987, 5 patients, dose 1.3, iv, with radiation, multiple cycles up to 5 months; cited from earlier work
PARP1 [7] = molecular target: T1, PARP1; design: isolated HeLa cell nuclei; endogenous in cells; host or cells: isolated HeLa cell nuclei; settings: 50 mM; Filetti, 1981; cited from earlier work
Target sequence in this assay (P09874 whole entry): as above

PARP1 [8] = molecular target: T2, PARP1 (Mus musculus, UniProt P11103); settings: cultured 10T1/2 cells; Rankin, 1989; cited from earlier work
T2 construct: solution/cultured 10T1/2 cells; endogenous in cells; host or cells: cultured 10T1/2 cells

PARP1 [9] = molecular target: T1, PARP1; settings: cited from earlier work
Target sequence in this assay (P09874 whole entry, species assumed): as the sequence (P09874 whole entry) above

[10] = after infusion of bromodeoxyuridine or iododeoxyuridine; cited from earlier work
[11] = cited from earlier work
HeLa cells = settings: cell culture; Sumikawa 2005; cited from earlier work
[12] = schedule A, single oral dose 2.40 Grams IPdR per M^2/day
[13] = schedule B, single oral dose 1.20 Grams IPdR per M^2/day
[14] = schedule C, single oral dose 0.60 Grams IPdR per M^2/day
[15] = schedule D, single oral dose 0.30 Grams IPdR per M^2/day
[16] = schedule E, single oral dose 0.15 Grams IPdR per M^2/day

T2 sequence (P11103 whole entry): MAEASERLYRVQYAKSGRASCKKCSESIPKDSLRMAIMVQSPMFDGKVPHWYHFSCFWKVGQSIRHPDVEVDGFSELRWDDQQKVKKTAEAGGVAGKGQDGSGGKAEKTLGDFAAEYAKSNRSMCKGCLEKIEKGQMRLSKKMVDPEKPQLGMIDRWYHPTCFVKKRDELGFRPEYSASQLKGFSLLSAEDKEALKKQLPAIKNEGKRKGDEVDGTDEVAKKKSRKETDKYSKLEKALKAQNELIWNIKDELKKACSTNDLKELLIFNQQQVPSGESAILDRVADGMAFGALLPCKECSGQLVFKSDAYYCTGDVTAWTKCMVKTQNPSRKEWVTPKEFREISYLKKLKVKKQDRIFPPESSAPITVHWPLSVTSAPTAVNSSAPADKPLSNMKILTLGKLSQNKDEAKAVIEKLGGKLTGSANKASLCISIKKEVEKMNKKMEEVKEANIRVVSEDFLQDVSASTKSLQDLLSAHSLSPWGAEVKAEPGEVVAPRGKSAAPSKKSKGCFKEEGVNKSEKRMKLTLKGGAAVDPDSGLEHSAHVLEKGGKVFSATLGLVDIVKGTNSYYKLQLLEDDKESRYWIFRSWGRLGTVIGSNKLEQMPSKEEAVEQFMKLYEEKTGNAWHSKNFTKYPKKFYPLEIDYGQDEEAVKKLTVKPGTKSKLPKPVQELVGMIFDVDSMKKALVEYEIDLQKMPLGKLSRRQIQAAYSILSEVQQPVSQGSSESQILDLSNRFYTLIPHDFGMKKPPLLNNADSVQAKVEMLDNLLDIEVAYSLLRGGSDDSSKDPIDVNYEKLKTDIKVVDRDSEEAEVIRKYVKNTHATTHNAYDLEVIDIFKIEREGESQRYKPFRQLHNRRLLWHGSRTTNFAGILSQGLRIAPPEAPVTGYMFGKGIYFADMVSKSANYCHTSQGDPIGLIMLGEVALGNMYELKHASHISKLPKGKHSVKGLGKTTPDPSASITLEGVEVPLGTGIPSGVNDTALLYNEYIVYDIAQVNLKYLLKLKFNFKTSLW

Question: For `NC(=O)c1cccc(N)c1` [3-amino-benzamide], which mode of inhibition (PARP1 [1]; Lineweaver-Burk plot, lines intersect vertical axis at control point) is on record?
Answer: Its mode of inhibition is “in competition with the substrate”.

Question: With `O=c1[nH]c(=O)n([C@H]2C[C@H](O)[C@@H](CO)O2)cc1Br` [Bromodeoxyuridine, 5-bromodeoxyuridine] as the compound, how does the IC50 (PARP1 [2]) read?
Answer: Its IC50 is 15 µM.

Question: What about the “reported HAT inhibitory effect: inhibition” value (PARP1 [3]) of the same compound?
Answer: The value was 1 mM = 97% inhibition.

Question: And the Ki (PARP1 [4])?
Answer: The Ki was 35 µM.

Question: And the “total number of cells per field” value [5]?
Answer: Its value is under 50 cells per field.

Question: What about the “total number of cells per field” value [6] of the same compound?
Answer: The value was under 50 cells per field.

Question: What about the objective improvement (Unresectable Sarcoma) of the same compound?
Answer: The objective improvement was 20%.

Question: And the subjective improvement (Unresectable Sarcoma)?
Answer: The subjective improvement was 20%.

Question: What about the Ki (PARP1 [1]; intercept of Lineweaver-Burk plot, 50 micromolar inhibitor, pH 7.3, read-out: inhibition constant) of the same compound?
Answer: The Ki was 10 to 30 µM.

Question: And the “reported HAT inhibitory effect” value (PARP1 [7])?
Answer: The value was 50 mM blocks hormone sensitization.

Question: What about the IC50 (PARP1 [8]) of the same compound?
Answer: Its IC50 is 57 µM.

Question: With `O=c1[nH]cc(Br)c(=O)[nH]1` [Bromouracil, 5-bromouracil] as the compound, how does the “inhibition of PARP1 enzymatic activity” value (PARP1 [9]) read?
Answer: Its value is “demonstrated capacity to inhibit PARP1 enzymatic activity”.

Question: And the “catabolite concentration accumulated in patient plasma” value [10]?
Answer: Its value is about 100 µM.

Question: Which “IU AUC” value [11, 12] does the source give for `O=c1ncc(I)cn1[C@H]1C[C@H](O)[C@@H](CO)O1` [IPdR, 5-iodo-2-pyrimidinone-2′-deoxyribose] here?
Answer: Its value is 1057.8 µM·h.

Question: What about the “IdU AUC” value [11, 12] of the same compound?
Answer: The value was 12.2 µM·h.

Question: And the “[IU] plasma (iodouracil), average maximum concentration” value (shortened to “[IU] plasma (iodouracil)”) [11, 12]?
Answer: Its value is 133 µM.

Question: What about the “[IdU] plasma, average maximum concentration” value (“[IdU] plasma” below) [11, 12] of the same compound?
Answer: The value was 4.0 µM.

Question: And the “IU AUC” value [11, 13]?
Answer: Its value is 102.7 µM·h.

Question: What about the “IdU AUC” value [11, 13] of the same compound?
Answer: The value was 4.7 µM·h.

Question: What about the “[IU] plasma (iodouracil)” value [11, 13] of the same compound?
Answer: The value was 34.2 µM.

Question: And the “[IdU] plasma” value [11, 13]?
Answer: Its value is 2.1 µM.

Question: And the “IU AUC” value [11, 14]?
Answer: The value was 17.2 µM·h.

Question: What about the “IdU AUC” value [11, 14] of the same compound?
Answer: The value was 3.2 µM·h.

Question: What about the “[IU] plasma (iodouracil)” value [11, 14] of the same compound?
Answer: The value was 4.5 µM.

Question: What about the “[IdU] plasma” value [11, 14] of the same compound?
Answer: The value was 1.8 µM.

Question: And the “IU AUC” value [11, 15]?
Answer: Its value is 4.5 µM·h.

Question: And the “IdU AUC” value [11, 15]?
Answer: Its value is 0.3 µM·h.

Question: And the “[IU] plasma (iodouracil)” value [11, 15]?
Answer: The value was 0.8 µM.

Question: And the “[IdU] plasma” value [11, 15]?
Answer: The value was 0.3 µM.

Question: What about the “IU AUC” value [11, 16] of the same compound?
Answer: Its value is 1.0 µM·h.

Question: What about the “IdU AUC” value [11, 16] of the same compound?
Answer: Its value is 1.7 µM·h.

Question: And the “[IU] plasma (iodouracil)” value [11, 16]?
Answer: The value was 0.2 µM.

Question: And the “[IdU] plasma” value [11, 16]?
Answer: The value was 0.8 µM.

Question: And the “time to average peak concentration of iododeoxyuridine in patient plasma” value ([11]; single oral dose of IPdR)?
Answer: Its value is at most 2 h.

Question: Which results are given for `O=c1[nH]cc(I)c(=O)[nH]1` [Iodouracil, 5-iodouracil]?
Answer: inhibition of PARP1 enzymatic activity (PARP1 [9]): demonstrated capacity to inhibit PARP1 enzymatic activity; catabolite concentration accumulated in patient plasma [10]: ~100 µM

Question: With `Cc1cn([C@H]2C[C@H](O)[C@@H](CO)O2)c(=O)[nH]c1=O` [Thymidine, thymidine] as the compound, how does the “concentration that induces HeLa cells to attach, flatten and undergo cell death and disintegration” value (HeLa cells) read?
Answer: The value was over 1.0 millimolar.
